Columns and labels:
[1] = Acute toxicity (DL50) in mus musculus; conditions: in vivo
Description: The DL50 for the α-methyl-α-(3,4-dihydro-1-naphtyl)acetic acid (1.620) determined in the mus musculus had the following values: • DL50 by oral administration = 1663 (1451-1905) mg/kg • DL50 by i.^p. administration = 1383 (1226-1559) mg/kg

Wistar rats = assay: Choleretic activity in the rat, bile fistula method; assay type: in vivo; conditions: for ml of bile flow ± s.e.: second series
Description: It is known that the primary effect of a choleretic agent is to increase the bile flow and the quantity of solid substances excreted with the bile. A good choleretic must provide this effect in a sufficiently intense and prolonged manner. In addition, as in the case of all drugs, it must have low acute toxicity and good general tolerability, but in particular must be free from toxic effects on the organ on which it is required to act, i.e. the liver, whether this is in a normal or pathological state. The analysis of the new product in comparison with the best known products for the same therapeutic use has therefore been focused on these aspects. The choleretic activity of the new product has been determined in the rat by using the bile fistula method. Wistar rats of both sexes and having a weight of between 180 and 240 g were used.
The animals, which were kept fasting for 12 hours but with free access to water, were narcotised by ethyl urethane in a dose of 1 g/kg by intra peritoneal or intramuscular injection.
After binding the animals to the retention bed, a median laparatomy was carried out, and when the bile duct had been isolated a cannula needle was inserted into it. A polythene tube was then inserted into those ani mals which were to receive the products intraduodenally, after which a su ture was carried out on the abdominal wall, and the bile was allowed to discharge for 30 minutes after inserting the cannula in the bile duct, so as to allow the discharge to become normal. The bile was then collec ted for one hour.
Having determined the volume of bile discharged during this first hour of collection (base volume), the products under examination were administered at the predetermined doses and by the predetermined methods. The bile excreted by the individual animals was then collected over each hour for a further six hours.
During the experiments, the animals were kept at ambient temperature of about 22°C, and at regular intervals of two hours received 10 ml/kg of physiological solution s.c.
The liquids were administered at a temperature of 37°C.
The bile flow and cholesterol excretion were determined on those bile fractions excreted by the animals over each hour starting from the base hour until the end of the experiment
The dry residue (R.So) was determined on the bile fraction excreted during the base hour and on the total bile fractions excreted during the sub sequent hours. For practical reasons, the determination of the dry residue and of the cholesterol (carried out by the Sperry & Webb method) were carried out on the pool of bile excreted by the entire group of animals subjected to the same treatment instead of on the bile fractions excreted by the individual animals (which was sometimes insufficient for determining the cholesterol).
In compiling the graphs, the differences between the choleresis in the treated animals and that in the controls was calculated over the considered time intervals, and expressed as a percentage of the base choleresis. For this calculation, the following formula was used: [formula] where Cn and C' represent the choleresis (in ml/kg/h for the bile flow, and in mg/kg/h for the dry residue) determined over the considered time interval for the group of treated animals and the group of controls respectively. Cb and C'b represent the base choleresis in the group of treated animals and group of controls respectively.
This index was calculated as the time for halving the maximum choleresis increase recorded under their effect.

rat = assay: Prolonged administration for 180 consecutive days, tolerability; assay type: in vivo; conditions: 50 mg/kg/die for 180 consecutive days
[2] = Acute toxicity (DL50) in the rat; conditions: in vivo
Description: The determination in the rat gave the following values: • DL50 by oral administration = 1720 (1520-1921) mg/kg • DL50 by i.p. administration = 1339 (1270-1744) mg/kg

[3] = ip, read-out: DL50 by i.p. administration
[4] = oral, read-out: DL50 by oral administration

CC(C(=O)O)C1=CCCc2ccccc21 (stereo not drawn) [1.620, α-methyl-α-(3,4-dihydro-1-naphthyl)-acetic acid]
LD50 [1, 3]: 1380 mg/kg | LD50 [1, 4]: 1660 mg/kg | Flow (Wistar rats; 25 mg/kg i.d., 0 (base hour)): 2,66±0,16 ml/kg/h | Flow (Wistar rats; 25 mg/kg i.d., 1 h): 4,24±0,25 ml/kg/h | Flow (Wistar rats; 25 mg/kg i.d., 2 h): 3,21±0,10 ml/kg/h | Flow (Wistar rats; 25 mg/kg i.d., 3 h): 2,89±0,10 ml/kg/h | Flow (Wistar rats; 25 mg/kg i.d., 4 h): 2,44±0,15 ml/kg/h | Flow (Wistar rats; 25 mg/kg i.d., 5 h): 2,20±0,14 ml/kg/h | Flow (Wistar rats; 25 mg/kg i.d., 6 h): 1,68±0,05 ml/kg/h | Flow (Wistar rats; 25 mg/kg p.o., 0 (base hour)): 3,05±0,33 ml/kg/h | Flow (Wistar rats; 25 mg/kg p.o., 1h): 3,89±0,47 ml/kg/h | Flow (Wistar rats; 25 mg/kg p.o., 2h): 3,13±0,24 ml/kg/h | Flow (Wistar rats; 25 mg/kg p.o., 3h): 2,84±0,21 ml/kg/h | Flow (Wistar rats; 25 mg/kg p.o., 4h): 2,35±0,19 ml/kg/h | Flow (Wistar rats; 25 mg/kg p.o., 5h): 2,05±0,21 ml/kg/h | Flow (Wistar rats; 25 mg/kg p.o., 6h): 1,87±0,39 ml/kg/h | Flow (Wistar rats; 50 mg/kg i.d., 0 (base hour)): 2,04±0,11 ml/kg/h | Flow (Wistar rats; 50 mg/kg i.d., 1 h): 3,90±0,28 ml/kg/h | Flow (Wistar rats; 50 mg/kg i.d., 2 h): 3,57±0,16 ml/kg/h | Flow (Wistar rats; 50 mg/kg i.d., 3 h): 2,69±0,09 ml/kg/h | Flow (Wistar rats; 50 mg/kg i.d., 4 h): 2,20±0,07 ml/kg/h | Flow (Wistar rats; 50 mg/kg i.d., 5 h): 2,00±0,10 ml/kg/h | Flow (Wistar rats; 50 mg/kg i.d., 6 h): 1,63±0,08 ml/kg/h | Flow (Wistar rats; 50 mg/kg p.o., 0 (base hour)): 2,76±0,09 ml/kg/h | Flow (Wistar rats; 50 mg/kg p.o., 1h): 4,90±0,16 ml/kg/h | Flow (Wistar rats; 50 mg/kg p.o., 2h): 3,74±0,13 ml/kg/h | Flow (Wistar rats; 50 mg/kg p.o., 3h): 3,34±0,13 ml/kg/h | Flow (Wistar rats; 50 mg/kg p.o., 4h): 2,73±0,07 ml/kg/h | Flow (Wistar rats; 50 mg/kg p.o., 5h): 2,60±0,08 ml/kg/h | Flow (Wistar rats; 50 mg/kg p.o., 6h): 2,25±0,09 ml/kg/h | Flow (Wistar rats; 100 mg/kg i.d., 0 (base hour)): 2,53±0,09 ml/kg/h | Flow (Wistar rats; 100 mg/kg i.d., 1 h): 6,61±0,27 ml/kg/h | Flow (Wistar rats; 100 mg/kg i.d., 2 h): 5,94±0,23 ml/kg/h | Flow (Wistar rats; 100 mg/kg i.d., 3 h): 4,12±0,14 ml/kg/h | Flow (Wistar rats; 100 mg/kg i.d., 4 h): 3,23±0,07 ml/kg/h | Flow (Wistar rats; 100 mg/kg i.d., 5 h): 2,74±0,06 ml/kg/h | Flow (Wistar rats; 100 mg/kg i.d., 6 h): 2,23±0,06 ml/kg/h | Flow (Wistar rats; 100 mg/kg p.o., 0 (base hour)): 2,40±0,23 ml/kg/h | Flow (Wistar rats; 100 mg/kg p.o., 1h): 4,44±0,28 ml/kg/h | Flow (Wistar rats; 100 mg/kg p.o., 2h): 4,95±0,39 ml/kg/h | Flow (Wistar rats; 100 mg/kg p.o., 3h): 4,10±0,32 ml/kg/h | Flow (Wistar rats; 100 mg/kg p.o., 4h): 3,10±0,31 ml/kg/h | Flow (Wistar rats; 100 mg/kg p.o., 5h): 2,79±0,23 ml/kg/h | Flow (Wistar rats; 100 mg/kg p.o., 6h): 2,33±0.25 ml/kg/h | Peak choleresis time of appearance (Wistar rats; 200 mg/kg p.o. (dose given for 1620 only)): 2nd hour | Peak choleresis % increase (Wistar rats; 200 mg/kg p.o. (dose given for 1620 only), increase over controls as percentage of base choleresis): 135% | Duration index (Wistar rats; 200 mg/kg p.o. (dose given for 1620 only), time for halving the maximum choleresis increase): 240' | Flow (Wistar rats; 200 mg/kg p.o., 0 (base hour)): 2,46±0,12 ml/kg/h | Flow (Wistar rats; 200 mg/kg p.o., 1h): 5,53±0,30 ml/kg/h | Flow (Wistar rats; 200 mg/kg p.o., 2h): 5,78±0,29 ml/kg/h | Flow (Wistar rats; 200 mg/kg p.o., 3h): 5,02±0,34 ml/kg/h | Flow (Wistar rats; 200 mg/kg p.o., 4h): 4,77±0,57 ml/kg/h | Flow (Wistar rats; 200 mg/kg p.o., 5h): 4,19±0,25 ml/kg/h | Flow (Wistar rats; 200 mg/kg p.o., 6h): 3,39±0,14 ml/kg/h | ml of bile flow ± s.e. (Wistar rats; oral by gastric probe 25 mg/kg, 0 (base values)): 2,6±0,20 ml | ml of bile flow ± s.e. (Wistar rats; oral by gastric probe 25 mg/kg, 1 h): 3,2±0,14 ml | ml of bile flow ± s.e. (Wistar rats; oral by gastric probe 25 mg/kg, 2 h): 2,7±0,10 ml | ml of bile flow ± s.e. (Wistar rats; oral by gastric probe 25 mg/kg, 3 h): 2,6±0,21 ml | ml of bile flow ± s.e. (Wistar rats; oral by gastric probe 25 mg/kg, 4 h): 1,9±0,11 ml | ml of bile flow ± s.e. (Wistar rats; oral by gastric probe 25 mg/kg, 5 h): 1,6±0,20 ml | ml of bile flow ± s.e. (Wistar rats; oral by gastric probe 25 mg/kg, 6 h): 1,6±0,21 ml | ml of bile flow ± s.e. (Wistar rats; oral by gastric probe 50 mg/kg, 0 (base values)): 2,8±0,19 ml | ml of bile flow ± s.e. (Wistar rats; oral by gastric probe 50 mg/kg, 1 h): 3,7±0,31 ml | ml of bile flow ± s.e. (Wistar rats; oral by gastric probe 50 mg/kg, 2 h): 3,4±0,22 ml | ml of bile flow ± s.e. (Wistar rats; oral by gastric probe 50 mg/kg, 3 h): 3,2±0,19 ml | ml of bile flow ± s.e. (Wistar rats; oral by gastric probe 50 mg/kg, 4 h): 3,0±0,18 ml | ml of bile flow ± s.e. (Wistar rats; oral by gastric probe 50 mg/kg, 5 h): 2,8±0,14 ml | ml of bile flow ± s.e. (Wistar rats; oral by gastric probe 50 mg/kg, 6 h): 2,2±0,18 ml | ml of bile flow ± s.e. (Wistar rats; oral by gastric probe 100 mg/kg, 0 (base values)): 2,5±0,16 ml | ml of bile flow ± s.e. (Wistar rats; oral by gastric probe 100 mg/kg, 1 h): 4,8±0,26 ml | ml of bile flow ± s.e. (Wistar rats; oral by gastric probe 100 mg/kg, 2 h): 3,7±0,31 ml | ml of bile flow ± s.e. (Wistar rats; oral by gastric probe 100 mg/kg, 3 h): 3,5±0,20 ml | ml of bile flow ± s.e. (Wistar rats; oral by gastric probe 100 mg/kg, 4 h): 3,2±0,32 ml | ml of bile flow ± s.e. (Wistar rats; oral by gastric probe 100 mg/kg, 5 h): 2,9±0,22 ml | ml of bile flow ± s.e. (Wistar rats; oral by gastric probe 100 mg/kg, 6 h): 2,7±0,23 ml | Tolerability on prolonged administration (rat): well tolerated | LD50 [2, 3]: 1340 mg/kg | LD50 [2, 4]: 1720 mg/kg

Source: patent EP0012729A1, “Therapeutic compositions containing as active compound a substituted acetic acid or its salt” ("IBIS" ISTITUTO BIOCHIMICO SPERIMENTALE S.p.A., priority 1978, dated 1980)
